According to PubChem BioAssay (NCI):
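Growth conditions: 96-well plates. Treatment: test compound, 48 hours, 5 concentrations. Analysis: linear interpolation between bracketing concentrations; unreached endpoints set to highest concentration. The concentration for full growth arrest is given as TGI.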

Columns and labels:
Assay in all cases: NCI tumour cell line growth inhibition, 48 h
HCT-116 colon = tested on: HCT-116 colon
SF-539 CNS = tested on: SF-539 CNS
OVCAR-4 ovarian = tested on: OVCAR-4 ovarian
U251 CNS = tested on: U251 CNS
HL-60(TB) leukemia = tested on: HL-60(TB) leukemia
MDA-MB-231 breast = tested on: MDA-MB-231 breast
786-0 renal = tested on: 786-0 renal
SR leukemia = tested on: SR leukemia
BT-549 breast = tested on: BT-549 breast
OVCAR-3 ovarian = tested on: OVCAR-3 ovarian
PC-3 prostate = tested on: PC-3 prostate
K-562 leukemia = tested on: K-562 leukemia
NCI-H460 lung = tested on: NCI-H460 lung
NCI/ADR-RES ovarian = tested on: NCI/ADR-RES ovarian
HT29 colon = tested on: HT29 colon
RXF 393 renal = tested on: RXF 393 renal
SW-620 colon = tested on: SW-620 colon
LOX IMVI melanoma = tested on: LOX IMVI melanoma
M14 melanoma = tested on: M14 melanoma
SNB-75 CNS = tested on: SNB-75 CNS
HOP-62 NSCLC = tested on: HOP-62 NSCLC
SF-268 CNS = tested on: SF-268 CNS
SK-OV-3 ovarian = tested on: SK-OV-3 ovarian
MOLT-4 leukemia = tested on: MOLT-4 leukemia
CCRF-CEM leukemia = tested on: CCRF-CEM leukemia
IGROV1 ovarian = tested on: IGROV1 ovarian
COLO 205 colon = tested on: COLO 205 colon
MALME-3M melanoma = tested on: MALME-3M melanoma
KM12 colon = tested on: KM12 colon
UACC-257 melanoma = tested on: UACC-257 melanoma
SK-MEL-5 melanoma = tested on: SK-MEL-5 melanoma
EKVX NSCLC = tested on: EKVX NSCLC
SN12C renal = tested on: SN12C renal
NCI-H226 lung = tested on: NCI-H226 lung
RPMI-8226 leukemia = tested on: RPMI-8226 leukemia
UACC-62 melanoma = tested on: UACC-62 melanoma
ACHN renal = tested on: ACHN renal
MCF7 breast = tested on: MCF7 breast
SF-295 CNS = tested on: SF-295 CNS
A549 NSCLC = tested on: A549 NSCLC
NCI-H23 lung = tested on: NCI-H23 lung
HCC-2998 colon = tested on: HCC-2998 colon
SNB-19 CNS = tested on: SNB-19 CNS
TK-10 renal = tested on: TK-10 renal
HS 578T breast = tested on: HS 578T breast
OVCAR-8 ovarian = tested on: OVCAR-8 ovarian
HCT-15 colon = tested on: HCT-15 colon
MDA-N = tested on: MDA-N
MDA-MB-435 = tested on: MDA-MB-435
DU-145 prostate = tested on: DU-145 prostate
A498 renal = tested on: A498 renal
OVCAR-5 ovarian = tested on: OVCAR-5 ovarian
SK-MEL-28 melanoma = tested on: SK-MEL-28 melanoma
UO-31 renal = tested on: UO-31 renal
SK-MEL-2 melanoma = tested on: SK-MEL-2 melanoma
HOP-92 NSCLC = tested on: HOP-92 NSCLC
CAKI-1 renal = tested on: CAKI-1 renal
T-47D breast = tested on: T-47D breast
NCI-H522 lung = tested on: NCI-H522 lung

With `COc1ccc(C(C)NNC(=O)c2ccncc2)cc1F` (centres undefined) the TGI (HCT-116 colon) was over 100 µM, the TGI (SF-539 CNS) was over 100 µM and the TGI (OVCAR-4 ovarian) was over 100 µM. For the same compound, the TGI (U251 CNS) was over 100 µM, the TGI (HL-60(TB) leukemia) was over 100 µM and the TGI (MDA-MB-231 breast) was over 100 µM. It also gave a TGI (786-0 renal) of over 100 µM, a TGI (SR leukemia) of over 100 µM and a TGI (BT-549 breast) of over 100 µM. For the same compound, the TGI (OVCAR-3 ovarian) was over 100 µM, the TGI (PC-3 prostate) was over 100 µM and the TGI (K-562 leukemia) was over 100 µM. For the same compound, the TGI (NCI-H460 lung) was over 100 µM, the TGI (NCI/ADR-RES ovarian) was over 100 µM and the TGI (HT29 colon) was over 100 µM. The TGI (RXF 393 renal) was over 100 µM, the TGI (SW-620 colon) was over 100 µM and the TGI (LOX IMVI melanoma) was over 100 µM. It also gave a TGI (M14 melanoma) of over 100 µM, a TGI (SNB-75 CNS) of over 100 µM and a TGI (HOP-62 NSCLC) of over 100 µM. For the same compound, the TGI (SF-268 CNS) was over 100 µM, the TGI (SK-OV-3 ovarian) was over 100 µM and the TGI (MOLT-4 leukemia) was over 100 µM. It also gave a TGI (CCRF-CEM leukemia) of over 100 µM, a TGI (IGROV1 ovarian) of over 100 µM and a TGI (COLO 205 colon) of over 100 µM. For the same compound, the TGI (MALME-3M melanoma) was over 100 µM, the TGI (KM12 colon) was over 100 µM and the TGI (UACC-257 melanoma) was over 100 µM. The TGI (SK-MEL-5 melanoma) was over 100 µM, the TGI (EKVX NSCLC) was over 100 µM and the TGI (SN12C renal) was over 100 µM. For the same compound, the TGI (NCI-H226 lung) was over 100 µM, the TGI (RPMI-8226 leukemia) was over 100 µM and the TGI (UACC-62 melanoma) was over 100 µM. It also gave a TGI (ACHN renal) of over 100 µM, a TGI (MCF7 breast) of over 100 µM and a TGI (SF-295 CNS) of over 100 µM. For the same compound, the TGI (A549 NSCLC) was over 100 µM, the TGI (NCI-H23 lung) was over 100 µM and the TGI (HCC-2998 colon) was over 100 µM. For the same compound, the TGI (SNB-19 CNS) was over 100 µM, the TGI (TK-10 renal) was over 100 µM and the TGI (HS 578T breast) was over 100 µM. It also gave a TGI (OVCAR-8 ovarian) of over 100 µM, a TGI (HCT-15 colon) of over 100 µM and a TGI (MDA-N) of over 100 µM. It also gave a TGI (MDA-MB-435) of over 100 µM, a TGI (DU-145 prostate) of over 100 µM and a TGI (A498 renal) of over 100 µM. For the same compound, the TGI (OVCAR-5 ovarian) was over 100 µM, the TGI (SK-MEL-28 melanoma) was over 100 µM and the TGI (UO-31 renal) was over 100 µM. For the same compound, the TGI (SK-MEL-2 melanoma) was over 100 µM, the TGI (HOP-92 NSCLC) was over 100 µM and the TGI (CAKI-1 renal) was over 100 µM. It also gave a TGI (T-47D breast) of over 100 µM.

`OC(O)(C(F)(F)F)C(F)(F)F` was tested, and the TGI (HCT-116 colon) was over 100 µM, the TGI (SF-539 CNS) was over 100 µM and the TGI (OVCAR-4 ovarian) was over 100 µM. For the same compound, the TGI (U251 CNS) was over 100 µM, the TGI (HL-60(TB) leukemia) was over 100 µM and the TGI (MDA-MB-231 breast) was over 100 µM. It also gave a TGI (786-0 renal) of over 100 µM, a TGI (SR leukemia) of over 100 µM and a TGI (BT-549 breast) of over 100 µM. It also gave a TGI (NCI-H522 lung) of over 100 µM, a TGI (OVCAR-3 ovarian) of over 100 µM and a TGI (PC-3 prostate) of over 100 µM. The TGI (K-562 leukemia) was over 100 µM, the TGI (NCI-H460 lung) was over 100 µM and the TGI (NCI/ADR-RES ovarian) was over 100 µM. For the same compound, the TGI (HT29 colon) was over 100 µM, the TGI (RXF 393 renal) was over 100 µM and the TGI (SW-620 colon) was over 100 µM. The TGI (LOX IMVI melanoma) was over 100 µM, the TGI (M14 melanoma) was over 100 µM and the TGI (SNB-75 CNS) was over 100 µM. The TGI (HOP-62 NSCLC) was over 100 µM, the TGI (SF-268 CNS) was over 100 µM and the TGI (SK-OV-3 ovarian) was over 100 µM. The TGI (MOLT-4 leukemia) was over 100 µM, the TGI (CCRF-CEM leukemia) was over 100 µM and the TGI (IGROV1 ovarian) was over 100 µM. It also gave a TGI (COLO 205 colon) of over 100 µM, a TGI (MALME-3M melanoma) of over 100 µM and a TGI (KM12 colon) of over 100 µM. The TGI (UACC-257 melanoma) was over 100 µM, the TGI (SK-MEL-5 melanoma) was over 100 µM and the TGI (EKVX NSCLC) was over 100 µM. It also gave a TGI (SN12C renal) of over 100 µM, a TGI (NCI-H226 lung) of over 100 µM and a TGI (RPMI-8226 leukemia) of over 100 µM. It also gave a TGI (UACC-62 melanoma) of over 100 µM, a TGI (ACHN renal) of over 100 µM and a TGI (MCF7 breast) of over 100 µM. For the same compound, the TGI (SF-295 CNS) was over 100 µM, the TGI (A549 NSCLC) was over 100 µM and the TGI (NCI-H23 lung) was over 100 µM. The TGI (HCC-2998 colon) was over 100 µM, the TGI (SNB-19 CNS) was over 100 µM and the TGI (TK-10 renal) was over 100 µM. The TGI (HS 578T breast) was over 100 µM, the TGI (OVCAR-8 ovarian) was over 100 µM and the TGI (HCT-15 colon) was over 100 µM. It also gave a TGI (MDA-N) of over 100 µM, a TGI (MDA-MB-435) of over 100 µM and a TGI (DU-145 prostate) of over 100 µM. It also gave a TGI (A498 renal) of over 100 µM, a TGI (OVCAR-5 ovarian) of over 100 µM and a TGI (SK-MEL-28 melanoma) of over 100 µM. The TGI (UO-31 renal) was over 100 µM, the TGI (SK-MEL-2 melanoma) was over 100 µM and the TGI (HOP-92 NSCLC) was over 100 µM. For the same compound, the TGI (CAKI-1 renal) was over 100 µM and the TGI (T-47D breast) was over 100 µM.

For `N#Cc1c(C#N)c(-c2ccccc2)n(/N=C\c2ccccc2)c1N`, the TGI (HCT-116 colon) was over 100 µM, the TGI (SF-539 CNS) was 55.1 µM and the TGI (OVCAR-4 ovarian) was 59.9 µM. It also gave a TGI (U251 CNS) of 47.4 µM, a TGI (HL-60(TB) leukemia) of over 100 µM and a TGI (MDA-MB-231 breast) of 65.3 µM. The TGI (786-0 renal) was over 100 µM, the TGI (SR leukemia) was 82.9 µM and the TGI (BT-549 breast) was over 100 µM. For the same compound, the TGI (NCI-H522 lung) was 49.5 µM, the TGI (OVCAR-3 ovarian) was 48.1 µM and the TGI (PC-3 prostate) was 49.4 µM. It also gave a TGI (K-562 leukemia) of over 100 µM, a TGI (NCI/ADR-RES ovarian) of 52.5 µM and a TGI (HT29 colon) of 83.1 µM. For the same compound, the TGI (RXF 393 renal) was 70.5 µM, the TGI (SW-620 colon) was over 100 µM and the TGI (LOX IMVI melanoma) was 32.8 µM. The TGI (M14 melanoma) was over 100 µM, the TGI (SNB-75 CNS) was 74.2 µM and the TGI (HOP-62 NSCLC) was over 100 µM. The TGI (SF-268 CNS) was over 100 µM, the TGI (SK-OV-3 ovarian) was 70.2 µM and the TGI (MOLT-4 leukemia) was 30.9 µM. It also gave a TGI (CCRF-CEM leukemia) of 51.2 µM, a TGI (IGROV1 ovarian) of 84.7 µM and a TGI (COLO 205 colon) of 72 µM. It also gave a TGI (MALME-3M melanoma) of over 100 µM, a TGI (KM12 colon) of over 100 µM and a TGI (UACC-257 melanoma) of 70.3 µM. It also gave a TGI (SK-MEL-5 melanoma) of 32.8 µM, a TGI (EKVX NSCLC) of 63.9 µM and a TGI (SN12C renal) of over 100 µM. It also gave a TGI (NCI-H226 lung) of 68.7 µM, a TGI (RPMI-8226 leukemia) of 40.1 µM and a TGI (UACC-62 melanoma) of 41.5 µM. It also gave a TGI (ACHN renal) of over 100 µM, a TGI (MCF7 breast) of over 100 µM and a TGI (SF-295 CNS) of 65.8 µM. It also gave a TGI (A549 NSCLC) of 71.4 µM, a TGI (NCI-H23 lung) of over 100 µM and a TGI (HCC-2998 colon) of 89.9 µM. The TGI (SNB-19 CNS) was over 100 µM, the TGI (TK-10 renal) was over 100 µM and the TGI (HS 578T breast) was 61.3 µM. The TGI (OVCAR-8 ovarian) was over 100 µM, the TGI (HCT-15 colon) was over 100 µM and the TGI (MDA-N) was over 100 µM. It also gave a TGI (MDA-MB-435) of over 100 µM, a TGI (DU-145 prostate) of over 100 µM and a TGI (A498 renal) of 77.4 µM. The TGI (OVCAR-5 ovarian) was over 100 µM, the TGI (UO-31 renal) was 81.8 µM and the TGI (SK-MEL-2 melanoma) was 87.3 µM. It also gave a TGI (HOP-92 NSCLC) of 68.4 µM, a TGI (CAKI-1 renal) of over 100 µM and a TGI (T-47D breast) of 29.1 µM.
